Earlier results, collected in PubChem BioAssay AID1259409 (Chemical Carcinogenesis Research Information System (CCRIS), 2018).

System: rodent chemically induced tumor inhibition, incidence and multiplicity
Test: CCRIS tumor inhibitor studies
Conditions: 10108-64-2, Species: RAT, Strain/Sex: WISTAR/MALE, Dose [Carcinogen]: 30 UMOL/KG IN 0.9% STERILE SALINE ONCE, Promoter: NONE USED

For `CC(=O)[O-].CC(=O)[O-].O.O.[Zn+2]`, the “tumour outcome (control, treated, inhibition, significance)” value (Carcinogen: CADMIUM CHLORIDE, Dose [Inhibitor]: 0.1 MMOL/KG IN 0.9% STERILE SALINE ADMINISTERED IN 3 SEPARATE DOSES AT 6 HR PRIOR TO, CONCURRENTLY WITH AND 18 HR POST C, Route [Inhibitor]: SUBCUTANEOUS, Target Tissue: Type of Lesion: PROSTATE GLAND: ADENOMA) is given as 7/30 (23%), 6/30 (20%), 13%, not calculated, the “tumour outcome (control, treated, inhibition, significance)” value (Carcinogen: CADMIUM CHLORIDE, Dose [Inhibitor]: 0.3 MMOL/KG IN 0.9% STERILE SALINE ADMINISTERED IN 3 SEPARATE DOSES AT 6 HR PRIOR TO, CONCURRENTLY WITH AND 18 HR POST C, Route [Inhibitor]: SUBCUTANEOUS, Target Tissue: Type of Lesion: PROSTATE GLAND: ADENOMA) is given as 7/30 (23%), 5/28 (18%), 22%, not calculated and the “tumour outcome (control, treated, inhibition, significance)” value (Carcinogen: CADMIUM CHLORIDE, Dose [Inhibitor]: 1.0 MMOL/KG IN 0.9% STERILE SALINE ADMINISTERED IN 3 SEPARATE DOSES AT 6 HR PRIOR TO, CONCURRENTLY WITH AND 18 HR POST C, Route [Inhibitor]: SUBCUTANEOUS, Target Tissue: Type of Lesion: PROSTATE GLAND: ADENOMA) is given as 11/26 (42%), 7/28 (25%), 40%, not calculated. For the same molecule, the “tumour outcome (control, treated, inhibition, significance)” value (Carcinogen: CADMIUM CHLORIDE, Dose [Inhibitor]: 100 PPM IN DRINKING WATER BEGINNING 2 WK PRIOR TO CARCINOGEN DOSE AND CONTINUING FOR DURATION OF STUDY (STUDY DURATION:, Route [Inhibitor]: ORAL, Target Tissue: Type of Lesion: PROSTATE GLAND: ADENOMA) was 7/30 (23%), 7/30 (23%), 0%, the “tumour outcome (control, treated, inhibition, significance)” value (Carcinogen: CADMIUM(II) CHLORIDE, Dose [Inhibitor]: 0.1 MMOL/KG IN 0.9% STERILE SALINE ADMINISTERED IN 3 SEPARATE DOSES AT 6 HR PRIOR TO CARCINOGEN DOSE, CONCURRENTLY WITH, Route [Inhibitor]: SUBCUTANEOUS, Target Tissue: Type of Lesion: INJECTION SITE: SARCOMA OR EPIDERMAL TUMOR) was 13/30 (43%), 9/30 (30%), 30%, not calculated and the “tumour outcome (control, treated, inhibition, significance)” value (Carcinogen: CADMIUM(II) CHLORIDE, Dose [Inhibitor]: 0.1 MMOL/KG IN 0.9% STERILE SALINE ADMINISTERED IN 3 SEPARATE DOSES AT 6 HR PRIOR TO CARCINOGEN DOSE, CONCURRENTLY WITH, Route [Inhibitor]: SUBCUTANEOUS, Target Tissue: Type of Lesion: TESTES: LEYDIG CELL ADENOMA OR MIXED SERTOLI-LEYDIG CELL TUMOR) was 22/30 (73%), 23/30 (77%), -5%, not calculated. For the same molecule, the “tumour outcome (control, treated, inhibition, significance)” value (Carcinogen: CADMIUM(II) CHLORIDE, Dose [Inhibitor]: 0.3 MMOL/KG IN 0.9% STERILE SALINE ADMINISTERED IN 3 SEPARATE DOSES AT 6 HR PRIOR TO CARCINOGEN DOSE, CONCURRENTLY WITH, Route [Inhibitor]: SUBCUTANEOUS, Target Tissue: Type of Lesion: INJECTION SITE: SARCOMA) was 13/30 (43%), 10/29 (34%), 21%, not calculated, the “tumour outcome (control, treated, inhibition, significance)” value (Carcinogen: CADMIUM(II) CHLORIDE, Dose [Inhibitor]: 0.3 MMOL/KG IN 0.9% STERILE SALINE ADMINISTERED IN 3 SEPARATE DOSES AT 6 HR PRIOR TO CARCINOGEN DOSE, CONCURRENTLY WITH, Route [Inhibitor]: SUBCUTANEOUS, Target Tissue: Type of Lesion: TESTES: LEYDIG CELL ADENOMA) was 22/30 (73%), 14/29 (48%), 34%, not calculated and the “tumour outcome (control, treated, inhibition, significance)” value (Carcinogen: CADMIUM(II) CHLORIDE, Dose [Inhibitor]: 1.0 MMOL/KG IN 0.9% STERILE SALINE ADMINISTERED IN 3 SEPARATE DOSES AT 6 HR PRIOR TO CARCINOGEN DOSE, CONCURRENTLY WITH, Route [Inhibitor]: SUBCUTANEOUS, Target Tissue: Type of Lesion: INJECTION SITE: SARCOMA OR HEMANGIOMA OR EPIDERMAL TUMOR) was 13/30 (43%), 9/29 (31%), 28%, not calculated. For the same molecule, the “tumour outcome (control, treated, inhibition, significance)” value (Carcinogen: CADMIUM(II) CHLORIDE, Dose [Inhibitor]: 1.0 MMOL/KG IN 0.9% STERILE SALINE ADMINISTERED IN 3 SEPARATE DOSES AT 6 HR PRIOR TO CARCINOGEN DOSE, CONCURRENTLY WITH, Route [Inhibitor]: SUBCUTANEOUS, Target Tissue: Type of Lesion: INJECTION SITE: SARCOMA) was 3/29 (10%), 1/29 (3%), 70%, not calculated, the “tumour outcome (control, treated, inhibition, significance)” value (Carcinogen: CADMIUM(II) CHLORIDE, Dose [Inhibitor]: 1.0 MMOL/KG IN 0.9% STERILE SALINE ADMINISTERED IN 3 SEPARATE DOSES AT 6 HR PRIOR TO CARCINOGEN DOSE, CONCURRENTLY WITH, Route [Inhibitor]: SUBCUTANEOUS, Target Tissue: Type of Lesion: TESTES: LEYDIG CELL ADENOMA OR SEMINOMA) was 4/29 (14%), 7/30 (23%), -64%, not calculated and the “tumour outcome (control, treated, inhibition, significance)” value (Carcinogen: CADMIUM(II) CHLORIDE, Dose [Inhibitor]: 1.0 MMOL/KG IN 0.9% STERILE SALINE ADMINISTERED IN 3 SEPARATE DOSES AT 6 HR PRIOR TO CARCINOGEN DOSE, CONCURRENTLY WITH, Route [Inhibitor]: SUBCUTANEOUS, Target Tissue: Type of Lesion: TESTES: LEYDIG CELL ADENOMA) was 22/30 (73%), 3/28 (11%), 85%, not calculated. For the same molecule, the “tumour outcome (control, treated, inhibition, significance)” value (Carcinogen: CADMIUM(II) CHLORIDE, Dose [Inhibitor]: 100 PPM IN DRINKING WATER BEGINNING 2 WK PRIOR TO CARCINOGEN DOSE AND CONTINUING FOR DURATION OF STUDY (STUDY DURATION:, Route [Inhibitor]: ORAL, Target Tissue: Type of Lesion: INJECTION SITE: SARCOMA AND FIBROMA) was 13/30 (43%), 1/30 (3%), 93%, not calculated and the “tumour outcome (control, treated, inhibition, significance)” value (Carcinogen: CADMIUM(II) CHLORIDE, Dose [Inhibitor]: 100 PPM IN DRINKING WATER BEGINNING 2 WK PRIOR TO CARCINOGEN DOSE AND CONTINUING FOR DURATION OF STUDY (STUDY DURATION:, Route [Inhibitor]: ORAL, Target Tissue: Type of Lesion: TESTES: LEYDIG CELL ADENOMA) was 22/30 (73%), 25/30 (83%), -14%, not calculated.
